Assay [1] concerns the target CNS cholinergic receptor. The conditions noted are these: read-out: CNS Cholinergic Receptor Binding Assays K1 QNB.
The target of assay [2] is CNS cholinergic receptor. The assay can be described thus: CNS cholinergic receptor binding, oxotremorine M ligand. The settings on record: tritiated oxotremorine M; read-out: CNS Cholinergic Receptor Binding Assays K1 Oxotremorine.
For assay [3], the system named is oxotremorine-induced body tremor. The assay can be described thus: Oxotremorine antagonist assay (body tremor). It counts as in vivo, mice. The protocol:
Oxotremorine antagonist assays were performed on groups of six mice weighing 18-22 g. Each was dosed intraperitoneally with the test compound prepared in 0.25% methylcellulose and were placed in individual cages. Twenty minutes later the mice were injected subcutaneously with 0.5 mg/kg of oxotremorine dissolved in saline. Ten minutes later the mice were scored for body tremor. Doses of the compound under study began at 100 mg/kg and were decreased at a 0.5 log interval until no responders were obtained.

[4] abbreviates: tritiated quinuclidine benzylate (QNB).
The mark [5] stands for this setting: Mus musculus, ip; read-out: Oxot. Antagonist Tremor (ED50).
Setting [6] is: Mus musculus, ip, read-out: Oxot. Antagonist Tremor (ED50).

Like-named read-outs stand apart in the source and are kept apart here.

Turning to `CC(=O)N1CCC[C@H]1C#CCN1CCCC1` [Compound 51B, (S)-1-Acetyl-2-[3-(1-pyrrolidinyl)-1-propynyl]pyrrolidine], the Ki on CNS cholinergic receptor [1] (setting [4]) worked out at 2.3 µM; on CNS cholinergic receptor [2] it was 370 nM. For the same compound, the ED50 (as a rule, the dose at which the effect has come halfway, by size or by number of responders) in assay [3] (setting [5]) is > 30 mg/kg.

Regarding `CN1C(=O)CN(CC#CCN2CCCC2)C1=O` [Compound 43, 3-Methyl-1-[4-(1-pyrrolidinyl)-2-butynyl]-2,4-imidazolidinedione], the Ki is > 10 µM at CNS cholinergic receptor [1] (setting [4]) and 364 nM on CNS cholinergic receptor [2]. For the same compound, the ED50 in assay [3] (setting [5]) was > 100 mg/kg.

Regarding `CC(=O)N1CCN(CC#CCn2cncc2C)C1=O` [Compound 26, 1-Acetyl-3-[4-(5-methyl-1H-imidazol-1-yl)-2-butynyl]-2-imidazolidinone], the Ki on CNS cholinergic receptor [1] (setting [4]) was > 10 µM; on CNS cholinergic receptor [2], 147 nM. Further, in assay [3] (setting [5]), the median effective dose (ED50) came to 45 mg/kg.

As to `CC(C#CCN1CCCC1)n1ccn(C)c1=O` (centres unmarked) [Compound 39, 1,3-Dihydro-1-methyl-3-[1-methyl-4-(1-pyrrolidinyl)-2-butynyl]-2H-imidazol-2-one], the Ki was 0.088 µM on CNS cholinergic receptor [1] (setting [4]) and 9 nM on CNS cholinergic receptor [2]. Further, the ED50 in assay [3] (setting [5]) is > 30 mg/kg.

`CC(C#CCN1CCCC1)N1CCN(C)C1=O` (centres unmarked) [Compound 22, 1-Methyl-3-[1-methyl-4-(1-pyrrolidinyl)-2-butynyl]-2-imidazolidinone]: in assay [3] (setting [6]), the 50% effective dose (ED50) is 37 mg/kg.

Regarding `CCN(CC)CC#CCN1CCN(C)C1=O` [Compound 24, 1-[4-(Diethylamino)-2-butynyl]-3-methyl-2-imidazolidinone], the values for the Ki at CNS cholinergic receptor [1] (setting [4]) and at CNS cholinergic receptor [2] were > 10 µM and 132 nM, respectively. Moreover, the median effective dose (ED50) in assay [3] (setting [5]) was > 100 mg/kg.

On to `Cc1cncn1CC#CCN1CCNC1=O` [Compound 27, 1-[4-(5-Methyl-1H-imidazol-1-yl)-2-butynyl]-2-imidazolidinone], for which the figures for the Ki at CNS cholinergic receptor [1] (setting [4]) and at CNS cholinergic receptor [2] were > 10 µM and 138 nM, respectively. In addition, the ED50 in assay [3] (setting [5]) was > 100 mg/kg.

On to `CC(C#CCN1CCCC1)N1CCNC1=O` (centres unmarked) [Compound 31, 1-[1-Methyl-4-(1-pyrrolidinyl)-2-butynyl]-2-imidazolidinone], for which the figures for the Ki on CNS cholinergic receptor [1] (setting [4]) and at CNS cholinergic receptor [2] were 0.135 µM and 15 nM, respectively. In assay [3] (setting [5]), the ED50 was > 30 mg/kg.

Regarding `CN(C)CC#CCN1CCNC1=O` [Compound 33, 1-[4-(Dimethylamino)-2-butynyl]-2-imidazolidinone], the Ki at CNS cholinergic receptor [1] (setting [4]) was > 10 µM; on CNS cholinergic receptor [2], 43 nM. Further, the median effective dose (ED50) in assay [3] (setting [5]) was > 100 mg/kg.

For `CC(C#CCN(C)C)n1ccn(C)c1=O` (centres unmarked) [Compound 40, 1,3-Dihydro-1-methyl-3-[4-(dimethylamino)-1-methyl-2-butynyl]-2H-imidazol-2-one], the Ki at CNS cholinergic receptor [1] (setting [4]) was > 10 µM; at CNS cholinergic receptor [2], 136 nM. Moreover, in assay [3] (setting [5]), the ED50 is > 100 mg/kg.

As for `O=c1[nH]ccn1CC#CCN1CCCC1` [Compound 38, 1,3-Dihydro-1-[4-(1-pyrrolidinyl)-2-butynyl]-2H-imidazol-2-one], the Ki on CNS cholinergic receptor [1] (setting [4]) is > 10 µM; on CNS cholinergic receptor [2], 33 nM. Moreover, the ED50 in assay [3] (setting [5]) was > 2 mg/kg.

With `Cc1cncn1CC#CCN1CCN(C)C1=O` [Compound 29, 1-Methyl-3-[4-(5-methyl-1H-imidazol-1-yl)-2-butynyl]-2-imidazolidinone], the figures for the Ki at CNS cholinergic receptor [1] (setting [4]) and at CNS cholinergic receptor [2] were 0.381 µM and 9 nM, respectively. Further, the 50% effective dose (ED50) in assay [3] (setting [5]) was > 100 mg/kg.

Turning to `CN(C)CC#CCn1ccn(C)c1=O` [Compound 37, 1,3-Dihydro-1-[4-(dimethylamino)-2-butynyl]-3-methyl-2H-imidazol-2-one], the Ki is > 10 µM at CNS cholinergic receptor [1] (setting [4]) and 37 nM at CNS cholinergic receptor [2]. Moreover, the ED50 in assay [3] (setting [5]) was > 100 mg/kg.

In the case of `C(#C[C@H]1CCCN1)CN1CCCC1` [Compound 50A, (R)-1-[3-(2-pyrrolidinyl)-2-propynyl]pyrrolidine], the Ki on CNS cholinergic receptor [1] (setting [4]) amounted to 4.8 µM; at CNS cholinergic receptor [2] it was 260 nM. Further, the ED50 in assay [3] (setting [5]) was > 100 mg/kg.

Take `CC(C#CCn1ccnc1)N1CCN(C)C1=O` (centres unmarked) [Compound 35, 3-[4-(1H-Imidazol-1-yl)-1-methyl-2-butynyl]-1-methyl-2-imidazolidinone]: the Ki on CNS cholinergic receptor [1] (setting [4]) came to 4.01 µM; on CNS cholinergic receptor [2], 120 nM. Moreover, in assay [3] (setting [5]), the ED50 was > 100 mg/kg.

Take `CCN1CCN(CC#CCN2CCCC2)C1=O` [Compound 30, 1-Ethyl-3-[4-(1-pyrrolidinyl)-2-butynyl]-2-imidazolidinone]: the values for the Ki on CNS cholinergic receptor [1] (setting [4]) and on CNS cholinergic receptor [2] were > 10 µM and 697 nM, respectively. Also, the 50% effective dose (ED50) in assay [3] (setting [5]) was > 30 mg/kg.

As to `C(#C[C@@H]1CCCN1)CN1CCCC1` [Compound 50B, (S)-1-[3-(2-pyrrolidinyl)-2-propynyl]pyrrolidine], the results for the Ki on CNS cholinergic receptor [1] (setting [4]) and on CNS cholinergic receptor [2] were > 10 µM and 1300 nM, respectively.

On to `CN1CCCN(CC#CCN2CCCC2)C1=O` [Compound 42, Tetrahydro-1-methyl-3-[4-(1-pyrrolidinyl)-2-butynyl]-2(1H)-pyrimidinone], for which the Ki on CNS cholinergic receptor [1] (setting [4]) stood at 1.58 µM; at CNS cholinergic receptor [2], 229 nM. Also, the ED50 in assay [3] (setting [5]) is > 30 mg/kg.

As to `CCN(CC)CC#CCN1CCNC1=O` [Compound 23, 1-[4-(Diethylamino)-2-butynyl]-2-imidazolidinone], the Ki at CNS cholinergic receptor [1] (setting [4]) was > 10 µM; at CNS cholinergic receptor [2], 425 nM. The median effective dose (ED50) in assay [3] (setting [5]) was > 100 mg/kg.

`CN1CCN(CC#CCn2ccnc2)C1=O` [Compound 28, 1-[4-(1H-Imidazol-1-yl)-2-butynyl]-3-methyl-2-imidazolidinone]: the Ki worked out at 1.87 µM on CNS cholinergic receptor [1] and 2 nM at CNS cholinergic receptor [2]. Besides, the 50% effective dose (ED50) in assay [3] (setting [6]) was > 100 mg/kg.

`CN1CC(=O)N(CC#CCN2CCCC2)C1=O` [Compound 44, 1-Methyl-3-[4-(1-pyrrolidinyl)-2-butynyl]-2,4-imidazolidinedione]: the Ki stood at 8.71 µM at CNS cholinergic receptor [1] (setting [4]) and 20 nM at CNS cholinergic receptor [2]. In addition, the ED50 in assay [3] (setting [5]) was > 30 mg/kg.

Consider `CC(C#CCN(C)C)N1CCN(C)C1=O` (centres unmarked) [Compound 32, 1-[4-(Dimethylamino)-1-methyl-2-butynyl]-3-methyl-2-imidazolidinone], for which the Ki at CNS cholinergic receptor [1] (setting [4]) was > 10 µM; at CNS cholinergic receptor [2] it was 33 nM. In addition, the median effective dose (ED50) in assay [3] (setting [5]) was > 100 mg/kg.

On to `CCN(CC)CC#CCn1ccn(C)c1=O` [Compound 4, 1-[4-(Diethylamino)-2-butynyl]-1,3-dihydro-3-methyl-2H-imidazol-2-one], for which the Ki on CNS cholinergic receptor [1] (setting [4]) is > 10 µM; at CNS cholinergic receptor [2], 563 nM. In addition, the ED50 in assay [3] (setting [5]) was > 100 mg/kg.

Consider `Cn1ccn(CC#CCn2ccnc2)c1=O` [Compound 6, 1,3-Dihydro-1-[4-(1H-imidazol-1-yl)-2-butynyl]-3-methyl-2H-imidazol-2-one], for which the Ki on CNS cholinergic receptor [1] (setting [4]) is > 10 µM; on CNS cholinergic receptor [2] it was 35 nM. In addition, in assay [3] (setting [5]), the 50% effective dose (ED50) was > 100 mg/kg.

`Cc1cncn1CC#CCn1ccn(C)c1=O` [Compound 7, 1,3-Dihydro-1-methyl-3-[4-(5-methyl-1H-imidazol-1-yl)-2-butynyl]-2H-imidazol-2-one]: the Ki worked out at 0.614 µM at CNS cholinergic receptor [1] (setting [4]) and 39 nM on CNS cholinergic receptor [2]. Moreover, the ED50 in assay [3] (setting [5]) is > 100 mg/kg.

On to `CCN(CC)CC#CC(C)N1CCN(C)C1=O` (centres unmarked) [Compound 34, 1-[4-(Diethylamino)-1-methyl-2-butynyl]-3-methyl-2-imidazolidinone], for which the Ki at CNS cholinergic receptor [1] (setting [4]) was 1.98 µM; at CNS cholinergic receptor [2], 165 nM. In addition, the median effective dose (ED50) in assay [3] (setting [5]) is > 100 mg/kg.

Turning to `O=C1NCCN1CC#CCn1ccnc1` [Compound 25, 1-[4-(1H-Imidazol-1-yl)-2-butynyl]-2-imidazolidinone], the results for the Ki at CNS cholinergic receptor [1] (setting [4]) and at CNS cholinergic receptor [2] were > 10 µM and 62 nM, respectively. Moreover, in assay [3] (setting [5]), the ED50 was > 100 mg/kg.

Consider `CN(C)CC#CCN1C(=O)CN(C)C1=O` [Compound 41, 3-[4-(Dimethylamino)-2-butynyl]-1-methyl-2,4-imidazolidinedione], for which the Ki at CNS cholinergic receptor [1] (setting [4]) was > 10 µM; on CNS cholinergic receptor [2], 86 nM.

The values above are taken from US5137905A, “Heterocyclic acetylenic amines having central nervous system activity” (The Upjohn Company, priority 1991, dated 1992).
